Key:
hSOS1 and hKRASG12C = biological target: T1, hSOS1 and hKRASG12C (Homo sapiens, UniProt Q07889); test: biochemical
T1 sequence (Q07889 564-1049): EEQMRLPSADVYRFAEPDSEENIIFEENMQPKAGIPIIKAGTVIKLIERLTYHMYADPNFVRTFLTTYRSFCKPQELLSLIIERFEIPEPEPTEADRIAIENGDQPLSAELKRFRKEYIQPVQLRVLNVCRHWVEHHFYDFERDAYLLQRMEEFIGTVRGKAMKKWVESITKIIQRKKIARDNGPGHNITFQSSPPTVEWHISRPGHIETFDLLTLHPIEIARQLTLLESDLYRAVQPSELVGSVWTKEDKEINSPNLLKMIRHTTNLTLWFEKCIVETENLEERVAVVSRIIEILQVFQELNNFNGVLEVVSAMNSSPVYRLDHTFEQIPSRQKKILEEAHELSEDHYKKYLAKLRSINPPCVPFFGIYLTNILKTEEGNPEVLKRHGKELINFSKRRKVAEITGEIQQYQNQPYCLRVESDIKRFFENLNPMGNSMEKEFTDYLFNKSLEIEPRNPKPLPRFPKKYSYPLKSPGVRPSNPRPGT
Procedure: Interaction assay was conducted to evaluate the ability of the compounds to disrupt the protein-protein interactions between hSOS1 and hKRASG12C. Inhibitory effect of compounds on GST-hSOS1, 564-1049aa expressed and purified in-house and HIS-hKRASG12C (R06-32DH, SignalChem) interaction was assessed using HTRF detection technology in biochemical assay. Compounds were pre-incubated with 10-50 nM working solution of hSOS1 per well of a 384 well plate (Perkin Elmer, Cat #6007290) for 10 min at 20° C. in the assay buffer containing 5 mM HEPES, pH 7.4, 150 mM NaCl, 10 mM EDTA, 1 mM DTT, 0.05% BSA fraction V and 0.0025% Igepal. Reaction was initiated by adding 100-300 nM working solution of hKRASG12C in assay buffer. Total assay volume was 15 μL. Reaction was continued for 30-60 min at 20° C. Then detection solution containing MAb Anti-GST-d2 (#61GSTDLA, Cisbio BioAssays) and MAb Anti-HIS-Tb (#61HISTLA, Cisbio BioAssays), all prepared in HTRF detection buffer (#61DB10RDF, Cisbio BioAssays) was added and further incubated for 30-60 min at 20° C. HTRF signal was recorded in PHERAStar microplate reader. Ratio of signal obtained at 665 nm and 620 nm was used to compute the percent inhibition of compound utilizing the following formula:
Positive control=hSOS1+hKRASG12C+MAb Anti-GST-d2+Mab Anti-HIS-Tb Negative control=hKRASG12C+MAb Anti-GST-d2+MAb Anti-HIS-Tb

[1] = biological target: T2, hSOS1 mediated nucleotide exchange on hKRASG12C (Homo sapiens, UniProt Q07889); test: biochemical
T2 sequence (Q07889 564-1049): T1 sequence (Q07889 564-1049)
Procedure: Example-127: Guanine Nucleotide Exchange Assay (GNEA)
GNEA assay was conducted to evaluate the effects of compounds on the nucleotide exchange on hKRASG12C mediated by hSOS1. Inhibitory effect of compounds on HIS-hSOS1, 564-1049aa mediated GTP loading onto GST-hKRASG12C, 1-169aa both expressed and purified in-house was assessed using HTRF detection technology in biochemical assay. Compounds were pre-incubated with hSOS1 working solution containing 10-50 nM hSOS1 and 200 nM EDA-GTP-DY-647P1 (Custom manufactured, Jena Biosciences) per well of a 384 well plate (Perkin Elmer, Cat #6007290) for 10 min at 20° C. in the assay buffer containing 10 mM HEPES, pH 7.4, 150 mM NaCl, 5 mM MgCl2, 1 mM DTT, 0.05% BSA fraction V and 0.0025% Igepal. Reaction was initiated by adding working solution of hKRASG12C containing 25-125 nM hKRASG12C and MAb Anti-GST-Tb (#61GSTTLA, Cisbio BioAssays) in assay buffer. Total assay volume was 15 μL. Reaction was continued for 30-60 min at 20° C. HTRF signal was recorded in PHERAStar microplate reader. Ratio of signal obtained at 665 nm and 620 nm was used to compute the percent inhibition of compound as follows.
Where, Positive control=hSOS1+EDA-GTP-DY-647P1+hKRASG12C+MAb Anti-GST-Tb Negative control=EDA-GTP-DY-647P1+hKRASG12C+MAb Anti-GST-Tb

pERK in DLD1 cells = test: ERK phosphorylation assay after EGF stimulation; assay type: cell-based; settings: Homo sapiens, DLD-1, compound 2 h, 200 ng/ml hEGF 5 minutes, alphascreen pERK, read-out: ERK phosphorylation inhibition IC50
Procedure: Example-128: ERK Phosphorylation Assay Protocol
Compounds were tested for their ability to inhibit pERK after EGF stimulation in DLD1 cells. Cells were seeded at 0.2 million cells per well in 96 well cell binding tissue culture plate in 100 μL complete media and were allowed to settle overnight (16 to 20 h). On the following day, cells were treated with various concentrations of test compounds for 2 h followed by stimulation with 200 ng/ml hEGF (diluted in PBS) for 5 minutes. Cells were then washed once with PBS and lysed in freshly prepared lysis buffer (provided with alphascreen surefire ERK1/2 p-T202/Y204 assay kit, cat no: TGRESB10K, Perkin Elmer). Lysis was carried out in plate shaker for 10-15 mins. Lysate was transferred to […] white opti-plate (Perkin Elmer) and alphascreen for pERK was carried out as per manufacturer's instructions. Plate was read after 2 h incubation in plate shaker at […] 300 RPM, 25-28° C.

Cc1nc(N[C@H](C)c2cc(N)cc(C(F)(F)F)c2)c2cc(N3CC4(CC(O)C4)C3)c3c(c2n1)CCC3 [Compound 52, (R)-2-(4-((1-(3-amino-5-(trifluoromethyl)phenyl)ethyl)amino)-2-methyl-8,9-dihydro-7H-cyclopenta[h]quinazolin-6-yl)-2-azaspiro[3.3]heptan-6-ol]
IC50 (hSOS1 and hKRASG12C): 1 to 10 nM | IC50 [1]: 1 to 30 nM | IC50 (pERK in DLD1 cells): 1 to 200 nM

Cc1nc(N[C@H](C)c2cc(N)cc(C(F)(F)F)c2)c2cc(N3CCOCC3)c3c(c2n1)CC(C)O3 (single isomer, unassigned) [Compound 117b]
IC50 (hSOS1 and hKRASG12C): 11 to 20 nM | IC50 (pERK in DLD1 cells): 1 to 200 nM

Cc1nc(N[C@H](C)c2cc(N)cc(C(F)(F)F)c2)c2cc(O[C@H]3CCOC3)c3c(c2n1)CCC3 [Compound 109, N—((R)-1-(3-amino-5-(trifluoromethyl)phenyl)ethyl)-2-methyl-6-(((S)-tetrahydrofuran-3-yl)oxy)-8,9-dihydro-7H-cyclopenta[h]quinazolin-4-amine]
IC50 (hSOS1 and hKRASG12C): 11 to 20 nM | IC50 (pERK in DLD1 cells): 201 to 500 nM

COCC1CCN(c2cc3c(N[C@H](C)c4cc(N)cc(C(F)(F)F)c4)nc(C)nc3c3c2CCC3)CC1 [Compound 54, (R)—N-(1-(3-amino-5-(trifluoromethyl)phenyl)ethyl)-6-(4-(methoxymethyl)piperidin-1-yl)-2-methyl-8,9-dihydro-7H-cyclopenta[h]quinazolin-4-amine]
IC50 (hSOS1 and hKRASG12C): 11 to 20 nM | IC50 [1]: 31 to 70 nM | IC50 (pERK in DLD1 cells): 1 to 200 nM

Cc1nc(N[C@H](C)c2cc(N)cc(C(F)(F)F)c2)c2cc(N3CCC(C(C)(C)O)CC3)c3c(c2n1)CCC3 [Compound 51, (R)-2-(1-(4-((1-(3-amino-5-(trifluoromethyl)phenyl)ethyl)amino)-2-methyl-8,9-dihydro-7H-cyclopenta[h]quinazolin-6-yl)piperidin-4-yl)propan-2-ol]
IC50 (hSOS1 and hKRASG12C): 1 to 10 nM | IC50 [1]: 1 to 30 nM | IC50 (pERK in DLD1 cells): 1 to 200 nM

Cc1nc(N[C@H](C)c2cc(N)cc(C(F)(F)F)c2)c2cc(N3CCC(O)(CO)CC3)c3c(c2n1)CCC3 [Compound 84, (R)-1-(4-((1-(3-amino-5-(trifluoromethyl)phenyl)ethyl)amino)-2-methyl-8,9-dihydro-7H-cyclopenta[h]quinazolin-6-yl)-4-(hydroxymethyl)piperidin-4-ol]
IC50 (hSOS1 and hKRASG12C): 1 to 10 nM | IC50 [1]: 1 to 30 nM | IC50 (pERK in DLD1 cells): 1 to 200 nM

Cc1nc(N[C@H](C)c2cc(N)cc(C(F)(F)F)c2)c2cc(N3CCNC(=O)C3)c3c(c2n1)CCC3 [Compound 53, (R)-4-(4-((1-(3-amino-5-(trifluoromethyl)phenyl)ethyl)amino)-2-methyl-8,9-dihydro-7H-cyclopenta[h]quinazolin-6-yl)piperazin-2-one]
IC50 (hSOS1 and hKRASG12C): 1 to 10 nM | IC50 [1]: 1 to 30 nM | IC50 (pERK in DLD1 cells): 1 to 200 nM

Cc1nc(N[C@H](C)c2cc(N)cc(C(F)(F)F)c2)c2cc(N3C[C@@H](C)O[C@@H](C)C3)c3c(c2n1)CCC3 [Compound 17, N—((R)-1-(3-amino-5-(trifluoromethyl)phenyl)ethyl)-6-((2S,6R)-2,6-dimethylmorpholino)-2-methyl-8,9-dihydro-7H-cyclopenta[h]quinazolin-4-amine]
IC50 (hSOS1 and hKRASG12C): 11 to 20 nM

COC[C@H]1CN(c2cc3c(N[C@H](C)c4cccc(C(F)(F)CO)c4F)nc(C)nc3c3c2CCC3)CCO1 [Compound 35, 2,2-difluoro-2-(2-fluoro-3-((R)-1-((6-((R)-2-(methoxymethyl)morpholino)-2-methyl-8,9-dihydro-7H-cyclopenta[h]quinazolin-4-yl)amino)ethyl)phenyl)ethan-1-ol]
IC50 (hSOS1 and hKRASG12C): 1 to 10 nM | IC50 [1]: 1 to 30 nM | IC50 (pERK in DLD1 cells): 1 to 200 nM

Cc1nc(N[C@H](C)c2cc(N)cc(C(F)(F)F)c2)c2cc(O[C@H]3CCOC3)c3oc(C)cc3c2n1 [Compound 111]
IC50 (hSOS1 and hKRASG12C): 11 to 20 nM | IC50 (pERK in DLD1 cells): 201 to 500 nM

Cc1nc(N[C@H](C)c2cc(N)cc(C(F)(F)F)c2)c2cc(O[C@H]3CCOC3)c3c(c2n1)CC(C)(C)O3 [Compound 112, N—((R)-1-(3-amino-5-(trifluoromethyl)phenyl)ethyl)-2,8,8-trimethyl-6-(((S)-tetrahydrofuran-3-yl)oxy)-8,9-dihydrofuro[2,3-h]quinazolin-4-amine]
IC50 (hSOS1 and hKRASG12C): 11 to 20 nM | IC50 (pERK in DLD1 cells): 1 to 200 nM

COCC1(O)CCN(c2cc3c(N[C@H](C)c4cc(N)cc(C(F)(F)F)c4)nc(C)nc3c3c2CCC3)CC1 [Compound 47, (R)-1-(4-((1-(3-amino-5-(trifluoromethyl)phenyl)ethyl)amino)-2-methyl-8,9-dihydro-7H-cyclopenta[h]quinazolin-6-yl)-4-(methoxymethyl)piperidin-4-ol]
IC50 (hSOS1 and hKRASG12C): 1 to 10 nM | IC50 [1]: 1 to 30 nM | IC50 (pERK in DLD1 cells): 1 to 200 nM

Cc1nc(N[C@H](C)c2cc(N)cc(C(F)(F)F)c2)c2cc(C3CCN(C)CC3)c3c(c2n1)CCC3 [Compound 101, (R)—N-(1-(3-amino-5-(trifluoromethyl)phenyl)ethyl)-2-methyl-6-(1-methylpiperidin-4-yl)-8,9-dihydro-7H-cyclopenta[h]quinazolin-4-amine]
IC50 (hSOS1 and hKRASG12C): 1 to 10 nM | IC50 (pERK in DLD1 cells): 1 to 200 nM

COC[C@H]1CN(c2cc3c(N[C@H](C)c4cc(N)cc(C(F)(F)F)c4)nc(C)nc3c3c2CCC3)CCO1 [Compound 27, N—((R)-1-(3-amino-5-(trifluoromethyl)phenyl)ethyl)-6-((R)-2-(methoxymethyl)morpholino)-2-methyl-8,9-dihydro-7H-cyclopenta[h]quinazolin-4-amine]
IC50 (hSOS1 and hKRASG12C): 1 to 10 nM | IC50 (pERK in DLD1 cells): 1 to 200 nM

Cc1nc(N[C@H](C)c2cc(N)cc(C(F)(F)F)c2)c2cc(N3CCN(C)CC3)c3c(c2n1)CCC3 [Compound 46, (R)—N-(1-(3-amino-5-(trifluoromethyl)phenyl)ethyl)-2-methyl-6-(4-methylpiperazin-1-yl)-8,9-dihydro-7H-cyclopenta[h]quinazolin-4-amine]
IC50 (hSOS1 and hKRASG12C): 1 to 10 nM

Cc1nc(NC(C)c2cc(N)cc(C(F)F)c2)c2cc(N3CCOCC3)c3c(c2n1)CCC3 (single isomer, unassigned) [Compound 77, (R/S)—N-(1-(3-amino-5-(difluoromethyl)phenyl)ethyl)-2-methyl-6-morpholino-8,9-dihydro-7H-cyclopenta[h]quinazolin-4-amine]
IC50 (hSOS1 and hKRASG12C): 1 to 10 nM | IC50 (pERK in DLD1 cells): 1 to 200 nM

COC1CCN(c2cc3c(N[C@H](C)c4cc(N)cc(C(F)(F)F)c4)nc(C)nc3c3c2CCC3)CC1 [Compound 1, (R)—N-(1-(3-amino-5-(trifluoromethyl)phenyl)ethyl)-6-(4-methoxypiperidin-1-yl)-2-methyl-8,9-dihydro-7H-cyclopenta[h]quinazolin-4-amine]
IC50 (hSOS1 and hKRASG12C): 11 to 20 nM | IC50 (pERK in DLD1 cells): 1 to 200 nM

Cc1cc(N)cc(C(C)Nc2nc(C)nc3c4c(c(N5CC6(COC6)C5)cc23)CCC4)c1 (single isomer, unassigned) [Compound 20, N-(1-(3-amino-5-methylphenyl)ethyl)-2-methyl-6-(2-oxa-6-azaspiro[3.3]heptan-6-yl)-8,9-dihydro-7H-cyclopenta[h]quinazolin-4-amine]
IC50 (hSOS1 and hKRASG12C): 1 to 10 nM | IC50 (pERK in DLD1 cells): 201 to 500 nM

Cc1nc(N[C@H](C)c2cc(N)cc(C(F)(F)F)c2)c2cc(N3CC[C@@H](O)C3)c3c(c2n1)CCC3 [Compound 44, (R)-1-(4-(((R)-1-(3-amino-5-(trifluoromethyl)phenyl)ethyl)amino)-2-methyl-8,9-dihydro-7H-cyclopenta[h]quinazolin-6-yl)pyrrolidin-3-ol]
IC50 (hSOS1 and hKRASG12C): 11 to 20 nM | IC50 (pERK in DLD1 cells): 1 to 200 nM

COc1cc2c(N[C@H](C)c3cc(N)cc(C(F)(F)F)c3)nc(C)nc2c2c1CCC2 [Compound 108, (R)—N-(1-(3-amino-5-(trifluoromethyl)phenyl)ethyl)-6-methoxy-2-methyl-8,9-dihydro-7H-cyclopenta[h]quinazolin-4-amine]
IC50 (hSOS1 and hKRASG12C): 1 to 10 nM

Cc1nc(N[C@H](C)c2cc(N)cc(C(F)(F)F)c2)c2cc(NC3CCOCC3)c3c(c2n1)CCC3 [Compound 21, (R)—N^4-(1-(3-amino-5-(trifluoromethyl)phenyl)ethyl)-2-methyl-N^6-(tetrahydro-2H-pyran-4-yl)-8,9-dihydro-7H-cyclopenta[h]quinazoline-4,6-diamine]
IC50 (hSOS1 and hKRASG12C): 11 to 20 nM | IC50 (pERK in DLD1 cells): 201 to 500 nM

Cc1nc(N[C@H](C)c2cc(N)cc(C(F)(F)F)c2)c2cc(N[C@H]3CCOC3)c3c(c2n1)CCC3 [Compound 19, N^4—((R)-1-(3-amino-5-(trifluoromethyl)phenyl)ethyl)-2-methyl-N^6—((S)-tetrahydrofuran-3-yl)-8,9-dihydro-7H-cyclopenta[h]quinazoline-4,6-diamine]
IC50 (hSOS1 and hKRASG12C): 1 to 10 nM | IC50 (pERK in DLD1 cells): 1 to 200 nM

Cc1nc(N[C@H](C)c2cc(N)cc(C(F)(F)F)c2)c2cc(NC3COC3)c3c(c2n1)CCC3 [Compound 28, (R)—N^4-(1-(3-amino-5-(trifluoromethyl)phenyl)ethyl)-2-methyl-N^6-(oxetan-3-yl)-8,9-dihydro-7H-cyclopenta[h]quinazoline-4,6-diamine]
IC50 (hSOS1 and hKRASG12C): 1 to 10 nM | IC50 [1]: 31 to 70 nM
